Read-outs that look alike come from different tables or passages of the source.
Experiments:
[1] = system: CYP3A4/5; experiment: Lignan metabolism in human liver microsomes with ketoconazole; format: in vitro ADME; conditions: 5 μM
Experimental: (§1) The CYP450s involved in the metabolism of schisandrin, schisantherin A, deoxyshisandrin and γ-schisandrin in rat or human liver microsomes were confirmed by comparison of the metabolism ratio before and after the addition of selective inhibitors to CYP450 isozymes. […] The supernate was injected to HPLC-MS for analysis of the four lignans.

[2] = system: rat liver; experiment: In situ hepatic perfusion of four lignans; format: in vivo; conditions: hepatic perfusion 60 min, 10 μM, n = 3
Experimental: (§2) In situ liver perfusion was performed similarly as the method described previously (Uraki et al., [2016]). […] The perfusate consisted of Krebs–Hensleit buffer (pH 7.4) containing sodium taurocholate (4.75 mg/L), 1% bovine serum albumin, and glucose (1.2 g/L) was oxygenated using carbogen, 95% O2/5% CO2. The perfusate at 37°C was infused into the portal vein at a flow rate of 30 mL/min in a recirculatory manner. After 10-min equilibration, four schisandra lignans were added to the reservoir (final concentration of 10 μM). Perfusate (0.5 mL) and bile samples were collected at 0, 10, 20, 30, 40, 50, and 60 min after the addition of lignans. The same volume of blank perfusion buffer was immediately added to the reservoir after collection of the perfusate samples. After hepatic perfusion, rat was sacrificed and liver was removed, blotted dry, and weighed.

[3] = In situ hepatic perfusion of four lignans; format: in vivo, rat; conditions: Sprague-Dawley, rat, perfusate, perfusate AUC(0−1h), n = 3
Experimental: as §2

[4] = system: CYP3A; experiment: Lignan metabolism in rat liver microsomes with ketoconazole; format: in vitro ADME; conditions: 5 μM, + Ketoconazole 100 μM (CYP3A)
Experimental: as §1

[5] = Identification of CYP450 isozymes in lignan metabolism, human liver microsomes (no inhibitor); format: in vitro ADME; conditions: human liver microsomes 0.5 mg/mL, 5 μM, Control (no inhibitor)
Experimental: as §1

[6] = Identification of CYP450 isozymes in lignan metabolism, rat liver microsomes (no inhibitor / overall); format: in vitro ADME; conditions: for Metabolism rate: rat liver microsomes 1 mg/mL, 5 μM, Control (no inhibitor); for CYP450 isozymes participated in the metabolism (≥20% inhibition): rat liver microsomes incubation with selective inhibitors
Experimental: as §1

[7] = Pharmacokinetics of four lignans in rats after oral SC alcoholic extract; format: in vivo, rat; conditions: for AUC(0-t) / Cmax / half-life / CL/F / MRT last / Tmax: Sprague-Dawley, rat, plasma, po, 1.5 g/kg/day, oral SC alcoholic extract 1.5 g/kg/day for 4 days, n = 5; for CL/F: read-out: CLz/F (converted); for MRT last: read-out: MRT(0−t); for Tmax: read-out: Tmax
Experimental: The pharmacokinetic profiles of four lignans were studied in ALI rat after multiple oral administrations of SC alcoholic extract at dose of 1.5 g/kg/day. After the ALI rat was established, SC alcoholic extract suspended in 0.5% sodium carboxymethyl cellulose was given to ALI rats and the control via oral gavage once a day for 4 consecutive days. Before the last dosing, rats were fasted for 12 h while water was taken freely. Blood samples were collected at 0, 0.25, 0.5, 1, 2, 3, 4, 6, 8, 12, 24, 36, and 48 h after the last dosing. A cannula was surgically placed into the jugular vein for collection of blood samples (about 0.1 mL) and blood loss compensation using sterile isotonic saline in the pharmacokinetic study. Plasma was separated by centrifugation and stored at −20°C until analysis. Plasma concentrations of the four lignans were quantified using HPLC-MS analysis developed according to the reported method (Wang et al., [2008]).
Data fitting and pharmacokinetic parameter calculations were carried out using the Winnolin software. Non-compartmental analysis was used to calculate the pharmacokinetic parameters. Parameters, such as AUC and MRT, were calculated using statistical moment method.

[8] = target: T1, CYP1A2 (Rattus norvegicus, UniProt P04799); experiment: Lignan metabolism in rat liver microsomes with furafylline; format: in vitro ADME; conditions: 5 μM, + Furafylline 50 μM (CYP1A2)
T1 sequence (P04799 1-513): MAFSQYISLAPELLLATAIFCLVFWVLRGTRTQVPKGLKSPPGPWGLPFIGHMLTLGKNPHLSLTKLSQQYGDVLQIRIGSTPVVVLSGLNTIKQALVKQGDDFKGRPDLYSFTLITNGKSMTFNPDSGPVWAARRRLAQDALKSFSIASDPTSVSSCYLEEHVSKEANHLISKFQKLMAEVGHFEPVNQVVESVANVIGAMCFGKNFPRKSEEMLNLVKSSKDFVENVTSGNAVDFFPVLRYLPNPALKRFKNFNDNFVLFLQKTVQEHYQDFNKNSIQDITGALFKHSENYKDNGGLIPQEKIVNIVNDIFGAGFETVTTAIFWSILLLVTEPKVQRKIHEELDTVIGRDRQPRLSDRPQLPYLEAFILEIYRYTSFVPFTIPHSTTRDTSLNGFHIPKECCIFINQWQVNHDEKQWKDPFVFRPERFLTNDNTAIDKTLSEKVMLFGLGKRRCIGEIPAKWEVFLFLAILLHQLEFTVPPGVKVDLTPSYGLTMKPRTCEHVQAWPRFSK
Experimental: as §1

[9] = Transport across Caco-2 cell monolayer; format: in vitro ADME; conditions: human, Caco-2; for efflux ratio at 2 h, 5 μM / efflux ratio at 2 h, 10 μM / efflux ratio at 2 h, 50 μM: ER = Papp (BL → AP)/Papp(AP → BL)
Experimental: Caco-2 cell (passage 38) was used in the transport experiments. Cells were seeded on polycarbonate filters (12 mm diameter, pore size […]) at 1 × 10^5/cm^2. The cell monolayer was formed 21 days post seeding when the transepithelial electrical resistance (TEER) was above 1,000 Ω• cm^2. Three concentration levels (5, 10, and 50 μM) were set for the four schisandra lignans in the study. After preincubation for 1 h at 37°C, the solution of the four lignans was respectively added to the apical (0.4 mL) or basolateral (0.6 mL) chamber for absorptive (AP → BL) and secretive (BL → AP) permeability test. At the specified timepoints (0.5, 1, 1.5 and 2 h), 50 μL samples (n = 3) were withdrawn from receiver chamber, and meanwhile, 50 μL fresh buffer was added. The four lignans were determined by HPLC-MS method.
The efflux rate (ER) was calculated by the formula ER = Papp (BL → AP)/Papp(AP → BL).

SMILES	Metabolism rate [1] [nmol/min/mg]	Total amount of analyte in bile ([2]; CCl4-intoxicated rats) [µg]	Total amount of analyte in liver ([2]; CCl4-intoxicated rats) [µg]	Total amount of analyte in bile ([2]; Control rats) [µg]	Total amount of analyte in liver ([2]; Control rats) [µg]	AUC at 10 μM ([3]; pH 7.4, CCl4-intoxicated rats) [ng·h/mL]	AUC at 10 μM ([3]; pH 7.4, Control rats) [ng·h/mL]	Metabolism rate [4] [nmol/min/mg]	Metabolism rate [5] [nmol/min/mg]	Metabolism rate [6] [nmol/min/mg]	CYP450 isozymes participated in the metabolism (≥20% inhibition) [6]	AUC(0-t) ([7]; CCl4-intoxicated rats) [ng·h/mL]	Cmax ([7]; CCl4-intoxicated rats) [ng/mL]	half-life ([7]; CCl4-intoxicated rats) [h]	CL/F ([7]; CCl4-intoxicated rats) [mL/min/kg]	MRT last ([7]; CCl4-intoxicated rats) [h]	Tmax ([7]; CCl4-intoxicated rats) [h]	AUC(0-t) ([7]; Control (normal) rats) [ng·h/mL]	Cmax ([7]; Control (normal) rats) [ng/mL]	half-life ([7]; Control (normal) rats) [h]	other results
COc1cc2c(c(OC)c1OC)-c1c(cc(OC)c(OC)c1OC)C[C@H](C)[C@@H](C)C2 [Deoxyshisandrin, deoxyshisandrin]	38.2 ± 4.3	0.75 ± 0.07	14.57 ± 2.41	1.29 ± 0.30	9.71 ± 1.32	3620 ± 100	3090 ± 120	20.0 ± 1.6	162.5 ± 15.6	87.5 ± 7.8	CYP2C11, CYP2D2, CYP2E1, and CYP3A	16400 ± 5020	775 ± 239	13.1 ± 1.78	35.5	16.4 ± 1.02	5.8 ± 2.86	7880 ± 2810	564 ± 318	11.5 ± 2.08	Reduction of systemic clearance (CLz/F) ([7]; CCl4 intoxicated rats vs control rats): ~56%; CL/F ([7]; Control (normal) rats): 80 mL/min/kg; MRT last ([7]; Control (normal) rats): 11.7 ± 0.97 h; Tmax ([7]; Control (normal) rats): 5 ± 2.24 h; Metabolism rate [8]: 85.2 ± 7.6 nmol/min/mg; Papp A→B at 2 h, 5 μM [9]: 1.17 ± 0.13 ×10⁻⁶ cm/s; Papp B→A at 2 h, 5 μM [9]: 1.67 ± 0.14 ×10⁻⁶ cm/s; efflux ratio at 2 h, 5 μM [9]: 1.42; Papp A→B at 2 h, 10 μM [9]: 1.16 ± 0.04 ×10⁻⁶ cm/s; Papp B→A at 2 h, 10 μM [9]: 1.52 ± 0.16 ×10⁻⁶ cm/s; efflux ratio at 2 h, 10 μM [9]: 1.31; Papp A→B at 2 h, 50 μM [9]: 1.24 ± 0.17 ×10⁻⁶ cm/s; Papp B→A at 2 h, 50 μM [9]: 1.71 ± 0.51 ×10⁻⁶ cm/s; efflux ratio at 2 h, 50 μM [9]: 1.38
COc1cc2c(c(OC)c1OC)-c1c(cc(OC)c(OC)c1OC)C[C@](C)(O)[C@@H](C)C2 [Schisandrin, schisandrin]	176.7 ± 27.6	1.06 ± 0.14	19.55 ± 2.07	1.15 ± 0.27	11.19 ± 1.18	3860 ± 70	3230 ± 110	172.9 ± 8.6	263.4 ± 22.5	233.3 ± 35.6	CYP2C6/11, CYP2E1, and CYP3A	74700 ± 26300	3980 ± 1530	7.74 ± 1.21	6.61	12.8 ± 0.25	6.2 ± 2.05	19800 ± 7490	1370 ± 617	10.1 ± 4.12	CL/F ([7]; Control (normal) rats): 24.3 mL/min/kg; MRT last ([7]; Control (normal) rats): 11.1 ± 0.97 h; Tmax ([7]; Control (normal) rats): 6 h; Metabolism rate [8]: 215.1 ± 26.5 nmol/min/mg; Papp A→B at 2 h, 5 μM [9]: 2.15 ± 0.56 ×10⁻⁶ cm/s; Papp B→A at 2 h, 5 μM [9]: 3.31 ± 0.59 ×10⁻⁶ cm/s; efflux ratio at 2 h, 5 μM [9]: 1.54; Papp A→B at 2 h, 10 μM [9]: 1.86 ± 0.17 ×10⁻⁶ cm/s; Papp B→A at 2 h, 10 μM [9]: 2.03 ± 0.11 ×10⁻⁶ cm/s; efflux ratio at 2 h, 10 μM [9]: 1.09; Papp A→B at 2 h, 50 μM [9]: 1.93 ± 0.2 ×10⁻⁶ cm/s; Papp B→A at 2 h, 50 μM [9]: 2.12 ± 0.17 ×10⁻⁶ cm/s; efflux ratio at 2 h, 50 μM [9]: 1.1

— paper PMC5861220, “The Cytochrome P450-Mediated Metabolism Alternation of Four Effective Lignans From Schisandra chinensis in Carbon Tetrachloride-Intoxicated Rats and Patients With Advanced Hepatocellular Carcinoma” (Frontiers in Pharmacology, 2018)
